US6472348B1, “Pyridone derivatives and herbicides” (Kumiai Chemical Industry Co., Ltd., priority 1996, dated 2002)

Tests used:
Type in all cases: in vivo
barnyardgrass (Ec) [1] = experiment: Test Example 1: herbicidal effects by paddy field soil treatment; conditions: 100 g of the active ingredient per 10 ares, 21st day after the application, index 0-5 of Table 47;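 further: grade of growth control; 5 = at least 90%; 4 = 70 to 90%; 3 = 50 to 70%; 2 = 30 to 50%; 1 = 10 to 30%; 0 = under 10%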
In short: (§1)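 Scoring of herbicidal effect came 21 days after application of 100 g active ingredient per 10 ares to flooded (3 cm) paddy-soil pots sown with barnyardgrass, monochoria and bulrush, kept in a greenhouse.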

bulrush (Sc) = experiment: as above; conditions: 100 g of the active ingredient per 10 ares, 21st day after the application, index 0-5 of Table 47;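 further: grade of growth control; 5 = at least 90%; 4 = 70 to 90%; 3 = 50 to 70%; 2 = 30 to 50%; 1 = 10 to 30%; 0 = under 10%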
In short: as §1

monochoria (Mo) = experiment: as above; conditions: 100 g of the active ingredient per 10 ares, 21st day after the application, index 0-5 of Table 47;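 further: grade of growth control; 5 = at least 90%; 4 = 70 to 90%; 3 = 50 to 70%; 2 = 30 to 50%; 1 = 10 to 30%; 0 = under 10%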
In short: as §1

Digitaria ciliaris (Di) = experiment: Test Example 2: herbicidal effects by upland field soil treatment; conditions: 100 g of the active ingredient per 10 ares;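 further: grade of growth control; 5 = at least 90%; 4 = 70 to 90%; 3 = 50 to 70%; 2 = 30 to 50%; 1 = 10 to 30%; 0 = under 10%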
Description: (§2) (Test on Herbicidal Effects by Upland Field Soil Treatment)

barnyardgrass (Ec) [2] = experiment: as above; conditions: 100 g of the active ingredient per 10 ares
Description: as §2

[3] = test system: common lambsquarters (Ch); experiment: as above; conditions: 100 g of the active ingredient per 10 ares
Description: as §2

pale smartweed (Po) [4] = experiment: as above; conditions: 100 g of the active ingredient per 10 ares
Description: as §2

rice flatsedge (Ci) [5] = experiment: as above; conditions: 100 g of the active ingredient per 10 ares
Description: as §2

slender amaranth (Am) [6] = experiment: as above; conditions: 100 g of the active ingredient per 10 ares
Description: as §2

Diaitaria ciliaris (Di) = experiment: Test Example 3: herbicidal effects by upland field foliage treatment; set-up: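 grade of growth control; 5 = at least 90%; 4 = 70 to 90%; 3 = 50 to 70%; 2 = 30 to 50%; 1 = 10 to 30%; 0 = under 10%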
In short: (§3)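 Using plants cultured for 2 weeks in a greenhouse from seed sown in soil-covered sand (pots 120 cm^2), the compounds were applied to foliage, and weed control was graded by standard criteria 14 days thereafter.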

barnyardgrass (Ec) [7] = experiment: as above; set-up: scale not given here
In short: as §3

[8] = test system: common lambsquarters (Ch); experiment: as above; set-up: scale not given here
In short: as §3

pale smartweed (Po) [9] = experiment: as above; set-up: scale not given here
In short: as §3

rice flatsedge (Ci) [10] = experiment: as above; set-up: scale not given here
In short: as §3

slender amaranth (Am) [11] = experiment: as above; set-up: scale not given here
In short: as §3

cotton (Go) = experiment: Test Example 4: crop plant selectivity by upland field soil treatment (cotton), phytotoxicity; set-up: scale not given here; conditions: dose 6.3 g ai/10 a, evaluated 21st day after application
Procedure: (§4) (Test on Crop Plant Selectivity by Upland Field Soil Treatment)
(§5) In a plastic pot (surface area: 600 cm^2) filled with sand, cotton (Go), Diaitaria ciliaris (Di), green foxtail (Se), pale smartweed (Po), slender amaranth (Am), common lambsquarters (Ch) and China jute (Ab) were sown and covered with soil. […] The plants were then cultured in a green house, and the evaluation of the herbicidal effects and phytotoxicity was conducted on the 21st day after the application in accordance with the standards as identified in Table 47. Symbol—represents “not tested”.

China jute (Ab) [12] = experiment: Test Example 4: crop plant selectivity by upland field soil treatment (cotton), herbicidal effects; set-up: scale not given here; conditions: dose 6.3 g ai/10 a, evaluated 21st day after application
Procedure: as §4, §5

[13] = test system: common lambsquarters (Ch); experiment: as above; set-up: scale not given here; conditions: dose 6.3 g ai/10 a, evaluated 21st day after application
Procedure: as §4, §5

green foxtail (Se) [14] = experiment: as above; set-up: scale not given here; conditions: dose 6.3 g ai/10 a, evaluated 21st day after application
Procedure: as §4, §5

pale smartweed (Po) [15] = experiment: as above; set-up: scale not given here; conditions: dose 6.3 g ai/10 a, evaluated 21st day after application
Procedure: as §4, §5

slender amaranth (Am) [16] = experiment: as above; set-up: scale not given here; conditions: dose 6.3 g ai/10 a, evaluated 21st day after application
Procedure: as §4, §5

wheat (Tr) = experiment: Test Example 5: crop plant selectivity by upland field soil treatment (wheat), phytotoxicity; set-up: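 grade of crop injury; 5 = at least 90%; 4 = 70 to 90%; 3 = 50 to 70%; 2 = 30 to 50%; 1 = 10 to 30%; 0 = under 10%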; conditions: dose 6.3 g ai/10a, 21st day after application
Procedure: as §4
(§6) In a plastic pot (surface area: 600 cm^2) filled with sand, wheat (Tr), Diaitaria ciliaris (Di), green foxtail (Se), pale smartweed (Po), slender amaranth (Am), common lambsquarters (Ch) and China jute (Ab) were sown and covered with soil. […] The plants were then cultured in a green house, and the evaluation of the herbicidal effects and phytotoxicity was conducted on the 21st day after the application in accordance with the standards as identified in Table 47. Symbol—represents “not tested”.

China jute (Ab) [17] = experiment: Test Example 5: crop plant selectivity by upland field soil treatment (wheat), herbicidal effects; set-up: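 grade of growth control; 5 = at least 90%; 4 = 70 to 90%; 3 = 50 to 70%; 2 = 30 to 50%; 1 = 10 to 30%; 0 = under 10%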; conditions: dose 6.3 g ai/10a, 21st day after application
Procedure: as §4, §6

[18] = test system: common lambsquarters (Ch); experiment: as above; set-up: scale not given here; conditions: dose 6.3 g ai/10a, 21st day after application
Procedure: as §4, §6

green foxtail (Se) [19] = experiment: as above; set-up: scale not given here; conditions: dose 6.3 g ai/10a, 21st day after application
Procedure: as §4, §6

pale smartweed (Po) [20] = experiment: as above; set-up: scale not given here; conditions: dose 6.3 g ai/10a, 21st day after application
Procedure: as §4, §6

slender amaranth (Am) [21] = experiment: as above; set-up: scale not given here; conditions: dose 6.3 g ai/10a, 21st day after application
Procedure: as §4, §6

soybean (Gl) = experiment: Test Example 6: crop plant selectivity by upland field soil treatment (soybean), phytotoxicity; set-up: scale not given here; conditions: dose 6.3 g ai/10a, 21st day after application
Procedure: as §4
(§7) In a plastic pot (surface area: 600 cm^2) filled with sand, soybean (Gl), Diaitaria ciliaris (Di), green foxtail (Se), Johnsongrass (So), pale smartweed (Po), slender amaranth (Am), common lambsquarters (Ch) and China jute (Ab) were sown and covered with soil. […] The plants were then cultured in a green house, and the evaluation of the herbicidal effects and phytotoxicity was conducted on the 21st day after the application in accordance with the standards as identified in Table 47. Symbol—represents “not tested”.

China jute (Ab) [22] = experiment: Test Example 6: crop plant selectivity by upland field soil treatment (soybean), herbicidal effects; set-up: scale not given here; conditions: dose 6.3 g ai/10a, 21st day after application
Procedure: as §4, §7

[23] = test system: common lambsquarters (Ch); experiment: as above; set-up: scale not given here; conditions: dose 6.3 g ai/10a, 21st day after application
Procedure: as §4, §7

green foxtail (Se) [24] = experiment: as above; set-up: scale not given here; conditions: dose 6.3 g ai/10a, 21st day after application
Procedure: as §4, §7

pale smartweed (Po) [25] = experiment: as above; set-up: scale not given here; conditions: dose 6.3 g ai/10a, 21st day after application
Procedure: as §4, §7

slender amaranth (Am) [26] = experiment: as above; set-up: scale not given here; conditions: dose 6.3 g ai/10a, 21st day after application
Procedure: as §4, §7

[27] = 21st day after the application, index 0-5 of Table 47
[28] = 100 g of the active ingredient per 10 ares, evaluated on the 14th day after treatment
[29] = evaluated on the 21st day after application
[30] = 100 g active ingredient per 10 ares, evaluated 14th day after treatment

SMILES: C=C(C)COc1cc(-c2ccc(C(F)(F)F)n(C)c2=O)c(F)cc1Cl [1-151]
- Herbicidal effects Ec (barnyardgrass (Ec) [1]): 5
- Herbicidal effects Sc (bulrush (Sc)): 5
- Herbicidal effects Mo (monochoria (Mo)): 5
- Herbicidal effects Di (Digitaria ciliaris (Di); [27]): 5
- Herbicidal effects Ec (barnyardgrass (Ec) [2]; [27]): 5
- Herbicidal effects Ch [3, 27]: 5
- Herbicidal effects Po (pale smartweed (Po) [4]; [27]): 5
- Herbicidal effects Ci (rice flatsedge (Ci) [5]; [27]): 5
- Herbicidal effects Am (slender amaranth (Am) [6]; [27]): 5
- Herbicidal effects Di (Diaitaria ciliaris (Di); [28]): 5
- Herbicidal effects Ec (barnyardgrass (Ec) [7]; [28]): 5
- Herbicidal effects Ch [8, 28]: 5
- Herbicidal effects Po (pale smartweed (Po) [9]; [28]): 5
- Herbicidal effects Ci (rice flatsedge (Ci) [10]; [28]): 5
- Herbicidal effects Am (slender amaranth (Am) [11]; [28]): 5
- Phytotoxicity Go (cotton (Go)): 1
- Herbicidal effects Ab (China jute (Ab) [12]): 5
- Herbicidal effects Ch [13]: 5
- Herbicidal effects Se (green foxtail (Se) [14]): 5
- Herbicidal effects Po (pale smartweed (Po) [15]): 5
- Herbicidal effects Am (slender amaranth (Am) [16]): 5
- Phytotoxicity Tr (wheat (Tr)): 2
- Herbicidal effects Ab (China jute (Ab) [17]): 5
- Herbicidal effects Ch [18]: 5
- Herbicidal effects Se (green foxtail (Se) [19]): 5
- Herbicidal effects Po (pale smartweed (Po) [20]): 5
- Herbicidal effects Am (slender amaranth (Am) [21]): 5
- Phytotoxicity Gl (soybean (Gl)): 0
- Herbicidal effects Ab (China jute (Ab) [22]): 5
- Herbicidal effects Ch [23]: 5
- Herbicidal effects Se (green foxtail (Se) [24]): 5
- Herbicidal effects Po (pale smartweed (Po) [25]): 5
- Herbicidal effects Am (slender amaranth (Am) [26]): 5

SMILES: C#CCN1C(=O)COc2cc(F)c(-c3cc(C)c(C(F)(F)F)n(C)c3=O)cc21 [Compound 2-2]
- Herbicidal effects Ec (barnyardgrass (Ec) [1]): 5
- Herbicidal effects Sc (bulrush (Sc)): 5
- Herbicidal effects Mo (monochoria (Mo)): 5
- Herbicidal effects Di (Digitaria ciliaris (Di); [29]): 5
- Herbicidal effects Ec (barnyardgrass (Ec) [2]; [29]): 5
- Herbicidal effects Ch [3, 29]: 5
- Herbicidal effects Po (pale smartweed (Po) [4]; [29]): 5
- Herbicidal effects Ci (rice flatsedge (Ci) [5]; [29]): 5
- Herbicidal effects Am (slender amaranth (Am) [6]; [29]): 5
- Herbicidal effects Di (Diaitaria ciliaris (Di); [30]): 5
- Herbicidal effects Ec (barnyardgrass (Ec) [7]; [30]): 5
- Herbicidal effects Ch [8, 30]: 5
- Herbicidal effects Po (pale smartweed (Po) [9]; [30]): 5
- Herbicidal effects Ci (rice flatsedge (Ci) [10]; [30]): 5
- Herbicidal effects Am (slender amaranth (Am) [11]; [30]): 5
- Phytotoxicity Tr (wheat (Tr)): 2
- Herbicidal effects Ab (China jute (Ab) [17]): 5
- Herbicidal effects Ch [18]: 5
- Herbicidal effects Se (green foxtail (Se) [19]): 5
- Herbicidal effects Po (pale smartweed (Po) [20]): 5
- Herbicidal effects Am (slender amaranth (Am) [21]): 5
